Laboratory results from the supplement of paper PMC10307832.

Legend:
Test in all cases: relative viability (nuclei count vs DMSO), 5 days (fraction); higher = more cells survive
[1] = compound: CCn1c(-c2nonc2N)nc2cnc(Oc3cccc(NC(=O)c4ccc(OCCN5CCOCC5)cc4)c3)cc21 + CC(=O)c1c(C)c2cnc(Nc3ccc(N4CCNCC4)cn3)nc2n(C2CCCC2)c1=O [Palbociclib] (partner 0.5 µM)
Summary of the method: (§1)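 Cells from lung cancer lines were seeded into 1536-well plates and, one day later, dosed by pin tool. Treatments were either a single drug or a fixed dose of an anchor drug with five library-drug doses (not always all listed) in √10 steps. After 5 days, nuclei were stained in a one-step fixation (final 0.05% Triton X-100, 1% formaldehyde, 1 ug/ml Hoechst) and counted on 4× images, and relative viability is the treated-to-vehicle nuclei ratio, as the median of duplicate plates.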

[2] = compound: N=C1NC(=O)/C(=C/c2ccc(O)cc2)S1 [Mirin] + O=C(CCCCCCC(=O)Nc1ccccc1)NO [Vorinostat] (partner 1 µM)
Summary of the method: as §1

[3] = compound: CCC1=CN=CN=C1N2CCN(CC2)CC3=NC4=C(N3)C=C(C=C4)C(F)(F)F + C[C@@H](Oc1cc(-c2cnn(C3CCNCC3)c2)cnc1N)c1c(Cl)ccc(F)c1Cl [Crizotinib] (partner 1 µM)
Summary of the method: as §1

Cell Line | relative viability ([1]; first compound 0.04 µM) | relative viability ([1]; first compound 0.1265 µM) | relative viability ([1]; first compound 0.4 µM) | relative viability ([1]; first compound 1.265 µM) | relative viability ([1]; first compound 4 µM) | relative viability ([2]; first compound 0.25 µM) | relative viability ([2]; first compound 0.7906 µM) | relative viability ([2]; first compound 2.5 µM) | relative viability ([2]; first compound 7.906 µM) | relative viability ([2]; first compound 25 µM) | relative viability ([3]; first compound 0.04 µM) | relative viability ([3]; first compound 0.1265 µM) | relative viability ([3]; first compound 0.4 µM) | relative viability ([3]; first compound 1.265 µM) | relative viability ([3]; first compound 4 µM)
NCI-H322M | 0.543 | 0.51 | 0.487 | 0.451 | 0.486 | 1 | 0.87 | 0.93 | 1.28 | 1.11 | 0.956 | 0.868 | 0.918 | 0.896 | 1.37
SK-MES-1 | 0.353 | 0.301 | 0.284 | 0.303 | 0.309 | 1.12 | 1.46 | 1.18 | 1.12 | 1.24 | 1.01 | 1.01 | 0.942 | 1.09 | 1.19
HOP-62 | 0.45 | 0.371 | 0.424 | 0.279 | 0.365 | 0.669 | 0.527 | 0.679 | 0.411 | 0.603 | 0.777 | 1.09 | 0.931 | 1.06 | 0.896
HCC-366 | 0.367 | 0.375 | 0.354 | 0.105 | 0.0645 | 0.391 | 0.203 | 0.404 | 0.244 | 0.413 | 0.622 | 0.493 | 0.579 |  | 1.15
NCI-H2405 | 0.572 | 0.361 | 0.304 | 0.234 | 0.222 | 0.943 |  | 1.11 | 1.03 | 1.21 | 0.847 | 0.867 | 0.855 |  | 1.02
LXF-289 | 0.67 | 0.654 | 0.6 | 0.585 | 0.548 | 0.727 | 0.818 | 0.713 | 0.8 | 0.836 | 0.823 | 0.754 | 0.825 | 0.781 | 0.87
LU99A | 0.502 | 0.399 | 0.392 | 0.405 | 0.392 | 0.44 | 0.44 | 0.474 | 0.457 | 0.33 | 0.543 | 0.53 | 0.541 | 1 | 1.09
PC-3 [JPC-3] | 0.539 | 0.548 | 0.444 | 0.497 | 0.482 | 0.919 | 0.722 | 0.81 | 0.86 | 1.18 | 0.989 | 0.919 | 0.948 | 0.92 | 0.934
NCI-H2085 | 0.514 | 0.44 | 0.402 | 0.359 | 0.39 | 0.805 | 0.842 | 0.853 | 0.922 | 0.804 | 0.86 | 0.909 | 0.93 | 0.892 | 0.948
NCI-H2170 | 0.434 | 0.405 | 0.378 | 0.408 | 0.407 | 0.621 | 0.828 | 0.906 | 0.665 | 0.859 | 1.12 | 1.18 | 1.2 | 1.27 | 1.49
HCC-78 | 0.446 | 0.445 | 0.525 | 0.533 | 0.452 | 0.41 | 0.473 | 0.472 | 0.399 | 0.471 | 0.304 | 0.3 | 0.345 | 0.322 | 0.379
NCI-H2228 | 0.852 | 0.8 | 0.652 | 0.683 | 0.644 | 0.576 | 0.96 | 0.957 | 0.724 | 1 | 0.474 | 0.586 | 0.417 | 0.428 | 0.524
H3255 | 0.293 | 0.311 | 0.318 | 0.296 | 0.305 | 0.547 | 0.678 | 0.846 | 0.789 | 0.814 | 0.864 | 0.888 | 0.794 | 0.757 | 0.941
HCC-15 | 0.758 | 0.665 | 0.673 | 0.596 | 0.7 | 0.902 | 0.955 | 0.915 | 0.838 | 0.82 | 0.75 | 0.78 | 0.819 | 0.946 | 1.06
NCI-H727 |  | 0.63 | 0.599 | 0.657 | 0.622 | 0.912 | 1.27 | 1.24 | 1.23 | 1.19 | 0.986 | 0.863 | 0.712 |  | 0.919
NCI-H2009 | 0.175 | 0.196 | 0.141 | 0.112 | 0.19 | 0.716 | 0.875 | 0.738 | 0.673 | 0.784 | 1.06 | 1.05 | 1.07 | 1.05 | 1.03
HCC-44 | 1.01 | 1.01 | 1.02 | 1.08 | 0.878 | 1.12 | 1.2 | 1.05 | 1.15 | 1.35 | 0.83 | 0.774 | 0.874 | 0.762 | 0.843
ChaGo-K-1 | 1.08 | 0.896 | 0.846 | 0.907 | 0.928 | 0.741 | 0.652 | 0.746 | 0.638 | 0.596 |  | 1.15 | 1.21 | 1.12 | 1.16
COR-L23 | 0.308 | 0.25 | 0.129 | 0.173 | 0.127 | 0.453 | 0.585 | 0.488 | 0.327 | 0.31 | 0.58 | 0.621 | 0.66 | 0.694 | 0.975
EMC-BAC-2 | 0.517 | 0.458 | 0.397 | 0.369 | 0.389 | 0.426 | 0.402 | 0.493 | 0.35 | 0.6 | 0.779 | 0.734 | 0.77 | 0.889 | 1.03
LCLC-103H | 0.478 | 0.464 | 0.485 | 0.429 | 0.518 | 0.774 | 0.695 | 0.79 | 0.793 | 0.868 | 1.09 | 1.01 | 1.04 | 1 | 1.16
LK-2 | 0.627 | 0.787 | 0.541 | 0.568 | 0.673 | 0.204 | 0.234 | 0.294 | 0.207 | 0.271 | 0.331 | 0.181 | 0.212 | 0.486 | 1.07
NCI-H3122 | 0.209 | 0.182 | 0.184 | 0.19 | 0.19 | 1.06 | 1.01 | 1.08 | 0.997 | 1.05 | 0.262 | 0.264 | 0.318 | 0.531 | 0.469
NCI-H2126 | 0.362 | 0.338 | 0.355 | 0.361 | 0.325 | 0.852 | 0.645 | 0.679 | 0.792 | 0.713 | 1.01 | 1 | 0.959 | 1.01 | 1.1
NCI-H520 | 0.242 | 0.207 | 0.199 | 0.176 | 0.175 | 0.67 | 0.807 | 0.729 | 0.561 | 0.527 | 0.73 | 0.784 | 0.837 | 0.796 | 1.12
LOU-NH91 | 0.508 | 0.476 | 0.502 | 0.422 | 0.421 | 0.908 | 0.902 | 1 | 0.843 | 1.16 | 0.695 | 0.696 | 0.761 | 0.779 | 0.801
NCI-H1651 | 0.587 | 0.584 | 0.476 | 0.369 | 0.432 | 0.224 | 0.554 | 0.478 | 0.567 | 0.591 | 0.889 | 0.839 | 0.845 | 0.837 | 0.913
NCI-H460 | 0.213 | 0.126 | 0.101 | 0.056 | 0.073 | 0.709 | 0.824 | 0.666 | 0.687 | 0.685 | 1.06 | 1.03 | 0.886 | 0.832 | 1.14
